Where only a bound is given, the exact number is not on record here.

The target of this experiment is human wild type-CFTR (Homo sapiens, UniProt P13569). Kind of experiment: Cell-based YFP assay. Also on record: expressed in transfected cells; host or cells: CHO-K1 (Chinese hamster ovary). The note with it: CHO-K1 cells expressing human wild type-CFTR and YFP-H148Q/I152L; forskolin 20 μM = 100% activity; read-out: Cell-based YFP Assay (EC50) Concentration Range. The gist of the method: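 CHO-K1 cells co-expressing human wild-type CFTR and YFP-H148Q/I152L halide sensor, grown 48 h at 37 °C, then in PBS. YFP quenching by I⁻ influx read at 37 °C after adding 140 mM I⁻ solution, sampled every 0.4 s for 14 s. Triplicates averaged; EC50 fitted.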
Sequence of human wild type-CFTR (P13569 whole entry): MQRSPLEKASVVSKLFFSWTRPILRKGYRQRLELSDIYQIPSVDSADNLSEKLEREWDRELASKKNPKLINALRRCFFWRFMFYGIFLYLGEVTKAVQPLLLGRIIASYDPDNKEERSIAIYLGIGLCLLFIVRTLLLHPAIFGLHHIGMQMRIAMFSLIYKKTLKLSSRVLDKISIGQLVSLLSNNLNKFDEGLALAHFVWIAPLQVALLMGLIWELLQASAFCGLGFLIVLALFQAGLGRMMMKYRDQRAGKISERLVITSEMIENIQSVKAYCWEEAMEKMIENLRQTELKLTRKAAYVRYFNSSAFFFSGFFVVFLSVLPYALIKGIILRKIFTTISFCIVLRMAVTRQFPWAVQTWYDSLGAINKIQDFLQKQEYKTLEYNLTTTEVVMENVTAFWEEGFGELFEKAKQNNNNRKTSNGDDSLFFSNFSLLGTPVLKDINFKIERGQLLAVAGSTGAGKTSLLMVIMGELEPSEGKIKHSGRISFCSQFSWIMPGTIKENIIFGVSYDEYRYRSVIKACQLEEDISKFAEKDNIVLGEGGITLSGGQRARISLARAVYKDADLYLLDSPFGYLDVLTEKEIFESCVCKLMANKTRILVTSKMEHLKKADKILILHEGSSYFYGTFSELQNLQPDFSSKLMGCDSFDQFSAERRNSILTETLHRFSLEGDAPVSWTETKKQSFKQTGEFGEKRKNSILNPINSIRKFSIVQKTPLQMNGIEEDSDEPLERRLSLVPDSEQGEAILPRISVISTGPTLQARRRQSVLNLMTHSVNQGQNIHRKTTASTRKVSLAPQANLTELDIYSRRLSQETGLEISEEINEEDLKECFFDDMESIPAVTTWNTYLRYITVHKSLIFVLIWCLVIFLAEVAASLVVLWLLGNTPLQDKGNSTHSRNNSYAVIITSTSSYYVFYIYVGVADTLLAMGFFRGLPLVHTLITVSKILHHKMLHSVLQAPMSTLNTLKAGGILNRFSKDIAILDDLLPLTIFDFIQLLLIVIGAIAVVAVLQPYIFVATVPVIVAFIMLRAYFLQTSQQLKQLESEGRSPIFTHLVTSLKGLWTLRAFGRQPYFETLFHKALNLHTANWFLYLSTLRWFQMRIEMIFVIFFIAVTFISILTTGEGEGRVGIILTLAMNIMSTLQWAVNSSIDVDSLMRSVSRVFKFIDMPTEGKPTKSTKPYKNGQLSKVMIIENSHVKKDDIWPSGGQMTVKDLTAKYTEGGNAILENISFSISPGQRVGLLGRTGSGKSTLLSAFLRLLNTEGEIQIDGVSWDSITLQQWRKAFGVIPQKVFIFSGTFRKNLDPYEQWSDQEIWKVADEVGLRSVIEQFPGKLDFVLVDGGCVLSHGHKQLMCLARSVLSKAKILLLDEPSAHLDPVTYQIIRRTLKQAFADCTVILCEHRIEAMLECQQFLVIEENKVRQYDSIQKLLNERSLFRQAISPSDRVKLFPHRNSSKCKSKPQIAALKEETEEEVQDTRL

In the case of `COc1ccc(-c2ccnc3cc(C(=O)N4CCN(C(=O)c5ccccc5)[C@@H](C5CC5)C4)nn23)cc1OC` [Compound 378, (S)-(4-benzoyl-3-cyclopropylpiperazin-1-yl)(7-(3,4-dimethoxyphenyl)pyrazolo[1,5-a]pyrimidin-2-yl) methanone], the EC50 is under 200 nM.

For `COc1ccc(-c2ccnc3cc(C(=O)N4CCN[C@H](C)C4)nn23)cc1OC` [Compound 322, (R)-(7-(3,4-dimethoxyphenyl)pyrazolo[1,5-a]pyrimidin-2-yl)(3-methylpiperazin-1-yl)methanone], the EC50 was at least 2000 nM.

For `COc1ccc(-c2ccnc3cc(C(=O)Nc4ccc(C(=O)OCCCN5CCN(C)CC5)cn4)nn23)cc1OC` [Compound 189, 3-(4-methylpiperazin-1-yl) propyl 6-(7-(3,4-dimethoxyphenyl)pyrazolo [1,5-a]pyrimidine-2-carboxamido)nicotinate], the EC50 was under 200 nM.

With `COc1ccc(-c2ccnc3cc(C(=O)Nc4ccc(C(=O)NCCN(C)C)cc4)nn23)cc1OC` [Compound 118, 7-(3,4-dimethoxyphenyl)-N-(4-((2-(dimethylamino)ethyl)carbamoyl)phenyl) pyrazolo[1,5-a]pyrimidine-2-carboxamide], the EC50 is at least 2000 nM.

Turning to `COc1ccc(-c2ccnc3cc(C(=O)Nc4ccc(C(=O)N5CCN(C)CC5)c(F)c4)nn23)cc1OC` [Compound 175, 7-(3,4-dimethoxyphenyl)-N-(3-fluoro-4-(4-methylpiperazine-1-carbonyl)phenyl)pyrazolo [1,5-a]pyrimidine-2-carboxamide], the EC50 was under 200 nM.

In the case of `COc1ccc(-c2ccnc3cc(C(=O)Nc4ccc(C(=O)N5CCOCC5)c(C)c4)nn23)cc1OC` [Compound 214, 7-(3,4-dimethoxyphenyl)-N-(3-methyl-4-(morpholine-4-carbonyl)phenyl)pyrazolo[1,5-a]pyrimidine-2-carboxamide], the EC50 is at least 2000 nM.

With `COc1ccc(-c2ccnc3cc(C(=O)Nc4ccc(C(=O)NCCCN(C)C)cc4)nn23)cc1OC` [Compound 220, 7-(3,4-dimethoxyphenyl)-N-(4-((3-(dimethylamino)propyl)carbamoyl)phenyl) pyrazolo[1,5-a]pyrimidine-2-carboxamide], the EC50 is at least 2000 nM.

As for `COc1ccc(-c2ccnc3cc(C(=O)NC45CC(C(=O)OCCCN6CCOCC6)(C4)C5)nn23)cc1OC` [Compound 199, 3-morpholinopropyl 3-(7-(3,4-dimethoxyphenyl)pyrazolo [1,5-a]pyrimidine-2-carboxamido)bicyclo[1.1.1] pentane-1-carboxylate], the EC50 is 200 to 2000 nM.

With `CCCOC(=O)c1ccc(NC(=O)c2cc3nccc(-c4ccc(OC)c(OC)c4)n3n2)cc1` [Compound 335, propyl 4-(7-(3,4-dimethoxyphenyl)pyrazolo [1,5-a]pyrimidine-2-carboxamido)benzoate], the EC50 is under 200 nM.

On to `COc1ccc(-c2ccnc3cc(C(=O)Nc4ccc(C(=O)N[C@@H](CO)C(=O)O)cc4)nn23)cc1OC` [Compound 45, (4-(7-(3,4-dimethoxyphenyl)pyrazolo[1,5-a]pyrimidine-2-carboxamido)benzoyl)-L-serine], for which the EC50 was at least 2000 nM.

For the compound `COc1ccc(-c2ccnc3cc(C(=O)N4CCN(C(=O)c5ccccc5C)[C@@H](C)C4)nn23)cc1OC` [Compound 381, (S)-(7-(3,4-dimethoxyphenyl)pyrazolo[1,5-a]pyrimidin-2-yl) (3-methyl-4-(2-methylbenzoyl)piperazin-1-yl)methanone], the EC50 is under 200 nM.

For `COc1ccc(-c2ccnc3cc(C(=O)N4CCN(C(=O)Nc5ccccc5)[C@@H](C)C4)nn23)cc1OC` [Compound 354, (S)-4-(7-(3,4-dimethoxy-phenyl)pyrazolo[1,5-a]pyrimidine-2-carbonyl)-2-methyl-N-phenylpiperazine-1-carboxamide], the EC50 was under 200 nM.

With `COc1ccc(-c2ccnc3cc(C(=O)N4CCN(C(=O)C5CC5)CC4)nn23)cc1OC` [Compound 110, (4-(cyclopropanecarbonyl)piperazin-1-yl)(7-(3,4-dimethoxyphenyl)pyrazolo[1,5-a]pyrimidin-2-yl)methanone], the EC50 was in the range of 200 to 2000 nM.

With `COc1ccc(-c2ccnc3cc(C(=O)Nc4ccc(N5CCN(C)CC5)cc4)nn23)cc1OC` [Compound 193, 7-(3,4-dimethoxyphenyl)-N-(4-(4-methylpiperazin-1-yl)phenyl)pyrazolo[1,5-a]pyrimidine-2-carboxamide], the EC50 is under 200 nM.

Consider `O=C(Nc1ccc(O)cc1)c1cc2nccc(-c3ccc(O)c(O)c3)n2n1` [Compound 38, 7-(3,4-dihydroxyphenyl)-N-(4-hydroxyphenyl)pyrazolo [1,5-a]pyrimidine-2-carboxamide], for which the EC50 fell in the range of 200 to 2000 nM.

With `CCOC(=O)C1(NC(=O)c2cc3nccc(-c4ccc(OC)c(OC)c4)n3n2)CC1` [Compound 26, ethyl 1-(7-(3,4-dimethoxyphenyl)pyrazolo [1,5-a]pyrimidine-2-carboxamido) cyclopropane-1-carboxylate], the EC50 lay within 200 to 2000 nM.

In the case of `COc1ccc(-c2ccnc3cc(C(=O)Nc4ccc(C(=O)N5CCN(c6ccccn6)CC5)cc4)nn23)cc1OC` [Compound 338, 7-(3,4-dimethoxyphenyl)-N-(4-(4-(pyridin-2-yl)piperazine-1-carbonyl)phenyl)pyrazolo[1,5-a]pyrimidine-2-carboxamide], the EC50 was under 200 nM.

In the case of `COc1ccc(-c2ccnc3cc(C(=O)Nc4ccc(NC(=O)CN(C)C)cc4)nn23)cc1OC` [Compound 258, 7-(3,4-dimethoxyphenyl)-N-(4-(2-(dimethylamino)acetamido)phenyl)pyrazolo[1,5-a]pyrimidine-2-carboxamide], the EC50 is under 200 nM.

`COc1ccc(-c2ccnc3cc(C(=O)N4CCc5ccc(C(=O)O)cc54)nn23)cc1OC` [Compound 232, 1-(7-(3,4-dimethoxyphenyl)pyrazolo[1,5-a]pyrimidine-2-carbonyl) indoline-6-carboxylic acid]: the EC50 is at least 2000 nM.

On to `COc1ccc(NC(=O)c2cc3nccc(-c4ccc(OC)c(OC)c4)n3n2)c(F)c1` [Compound 325, 7-(3,4-dimethoxyphenyl)-N-(2-fluoro-4-methoxyphenyl)pyrazolo [1,5-a]pyrimidine-2-carboxamide], for which the EC50 is under 200 nM.

Regarding `COc1ccc(-c2ccnc3cc(C(=O)Nc4ccc(C(=O)N5CCC[C@H]5C(=O)O)cc4)nn23)cc1OC` [Compound 50, (4-(7-(3,4-dimethoxyphenyl)pyrazolo[1,5-a]pyrimidine-2-carboxamido)benzoyl)-L-proline], the EC50 is at least 2000 nM.

`COc1ccc(-c2ccnc3cc(C(=O)Nc4ccc(C(=O)N5CCOCC5)c(F)c4)nn23)cc1OC` [Compound 174, 7-(3,4-dimethoxyphenyl)-N-(3-fluoro-4-(morpholine-4-carbonyl)phenyl)pyrazolo[1,5-a]pyrimidine-2-carboxamide]: the EC50 is under 200 nM.

As for `COc1ccc(-c2ccnc3cc(C(=O)NC4CCN(C[C@@H](O)CO)CC4)nn23)cc1OC` [Compound 103, (R)-N-(1-(2,3-dihydroxypropyl)piperidin-4-yl)-7-(3,4-dimethoxyphenyl) pyrazolo[1,5-a]pyrimidine-2-carboxamide], the EC50 was at least 2000 nM.

Regarding `COc1ccc(-c2ccnc3cc(C(=O)N4CCN(C(=O)c5ccccc5)C5(CC5)C4)nn23)cc1OC` [Compound 367, (4-benzoyl-4,7-diazaspiro [2.5]octan-7-yl)(7-(3,4-dimethoxyphenyl)pyrazolo[1,5-a]pyrimidin-2-yl)methanone], the EC50 was under 200 nM.
